The results in this text go back to publication PMC12073635, “Synthesis of Tricyclic and Tetracyclic Lactone Derivatives of Thieno[2,3-b]pyrazine or Thieno[2,3-b]quinoline: Preliminary Antitumor and Antiparasitic Activity Evaluation” (Molecules, 2025).

Some results are limits rather than exact numbers.

The subject of data set [1] is CaCo-2 (colorectal adenocarcinoma) cells. Briefly: SRB cell growth inhibition assay, CaCo-2. In kind it is cell-based, human. Conditions: mean ± standard deviation.
Data set [2] concerns AGS (gastric adenocarcinoma) cells. The data set can be described thus: SRB cell growth inhibition assay, AGS. The note with it: Homo sapiens, 72 h, mean ± standard deviation. In kind it is cell-based.
Data set [3] deals with HeLa (cervical carcinoma) cells. The data set can be described thus: SRB cell growth inhibition assay, HeLa. In kind it is cell-based. Conditions: Homo sapiens, 72 h, mean ± standard deviation.
For data set [4], the system named is PLP2 (primary pig liver cell culture). Briefly: SRB assay, toxicity in non-tumor PLP2 cells. In kind it is cell-based. The note with it: at the GI50 concentrations. In general terms: Sulforhodamine B stains cellular protein and so reports cell mass.
Data set [5] concerns T. brucei Lister 427 bloodstream forms. The data set can be described thus: Resazurin-based anti-T. brucei assay. In kind it is cell-based, Trypanosoma brucei. Conditions: 72 h, dose-response; for IC50: Trypanosoma brucei. A general note: Resazurin is reduced to fluorescent resorufin, in cell work by metabolically active cells.
Data set [6] deals with five human tumor cell lines (CaCo-2, MCF-7, AGS, HeLa, NCI-H460). The data set can be described thus: SRB assay, statements over the five human tumor cell lines. In kind it is cell-based. Conditions: text statement over CaCo-2, MCF-7, AGS, read-out: GI50 in all tested human tumor cell lines. The procedure:
The antitumor potential of the Sonogashira coupling products 2, tricyclic lactones 3 and 5, and tetracyclic lactones 7 was evaluated using the sulforhodamine B (SRB) assay against five human tumor cell lines: colorectal adenocarcinoma (CaCo-2), breast adenocarcinoma (MCF-7), gastric adenocarcinoma (AGS), cervical carcinoma (HeLa), and non-small cell lung cancer (NCI-H460). A primary pig liver cell culture (PLP2) was used to assess the toxicity of compounds.
The human tumor cell lines used were CaCo-2 (colorectal adenocarcinoma), MCF-7 (breast adenocarcinoma), AGS (gastric adenocarcinoma), HeLa (cervical carcinoma), NCI-H460 (lung carcinoma). Non-tumor cell lines were also tested: PLP2 (primary pig liver culture). All the cell lines were maintained in RPMI-1640 medium supplemented with 10% fetal bovine serum, glutamine (2 mM), penicillin (100 U/mL), and streptomycin ([…]), with the exception of PLP2, which was maintained in DMEM medium supplemented with fetal bovine serum (10%), glutamine and antibiotics. The culture flasks were incubated at 37 °C and with 5% CO2, under a humid atmosphere. The cells were used only when they had 70 to 80% confluence. […] Finally, an adhered SRB was solubilized with Tris (10 mM, 200 μL) and the absorbance at a wavelength of 540 nm was read in the Biotek ELX800 microplate reader. […]

The term GI50 denotes the concentration at which growth is held to half of that of the control. Usually IC50 stands for the concentration at which inhibition is half-maximal. Turning to `COC(=O)c1sc2nccnc2c1C#Cc1ccccn1` [Compound 2f, Methyl 7-(pyridin-2-ylethynyl)thieno[2,3-b]pyrazine-6-carboxylate], the GI50 in data set [1] (72 h) is 3.72 ± 2.42 µM; in data set [1] (Homo sapiens, Caco-2, 72 h), < 5 µM; in data set [2] it was 9.25 ± 0.61 µM; in data set [3] it was 5.44 ± 4.31 µM; in data set [6] it was < 10 µM. For the same compound, the “toxicity in PLP2 cells (in words)” value in data set [4] is “without significant toxicity”. The “T. brucei IC50” value in data set [5] is reported as “low μM range”. Moreover, the IC50 in data set [5] was determined as 6.43 µM.

For the compound `O=c1oc(-c2ccccn2)cc2c1sc1nccnc12` [Compound 3f, 8-(Pyridin-2-yl)-6H-pyrano[4′,3′:4,5]thieno[2,3-b]pyrazin-6-one], the GI50 is 58.8 ± 2.44 µM in data set [1] (Homo sapiens, Caco-2, 72 h); 42.6 ± 3.96 µM in data set [2]; 58.8 ± 2.44 µM in data set [3]; < 10 µM in data set [6]. For the same compound, in data set [4], the “toxicity in PLP2 cells (in words)” value is reported as “low toxicity”. Also, in data set [5], the IC50 was < 11 µM.
